Assay results from patent US20260022114A1, “N-(5-SUBSTITUTED-[(1,3,4-THIADIAZOLYL) OR (1,3-THIAZOLYL)](SUBSTITUTED)CARBOXAMIDE COMPOUNDS, PHARMACEUTICAL COMPOSITIONS, AND METHODS OF PREPARING THE AMIDE COMPOUNDS AND OF THEIR USE” (Repare Therapeutics Inc., priority 2022, published 2026).
pIC50: −log10 of the molar value. Entries after “also recorded” stand apart in the source; their conditions may differ.

Assays:
[1] = system: MDAMB436 BRCA1 mutant breast tumor cells; assay: Polθ-DNA-PK inhibitor combination, cell viability by Incucyte; assay type: cell-based; conditions: in combination with AZD-7648 (DNA-PK inhibitor), 9 days (FIG. 3)
Description: MDAMB436 BRCA1 mutant breast tumor cells were plated at 1500 cells/well in 96 well plates. Compounds were added on day 1 and cells were grown in at 37° C. for 9 days. Cell growth was assessed by the Incucyte assay. Cell viability was normalized to untreated cells.

DLD1-BRCA2−/− tumors = assay: Compound 113 and carboplatin, tumor volume in mice; assay type: in vivo, SCID-Beige mice; conditions: Compound 113 45 mg/kg SDD suspension p.o. QD with carboplatin 25 mg/kg i.p. QW; day 35 N=10, p=0.0428 (FIG. 6A, 6B)
Description: (§1) A spray dried dispersion (SDD) formulation was developed using Compound 113. A 1:1 (w/w) mixture of Compound 113 and HPMCAS (grade H) were fully dissolved in a 4:1 (v/v) mixture of dichloromethane:methanol at a loading of ˜5% solid (w/w). The solution was spray-dried to an amorphous powder which was further dried overnight in a vacuum oven set to 40° C. to remove residual solvents. This SDD material was used for subsequent in vivo dosing in mouse models.
DLD1-BRCA2−/− (10^7 cells/mouse) cells were injected subcutaneously in SCID-Beige mice. Mice were randomized at a mean tumor volume of 150 mm^3. Compound 113 (45 mg/kg as an SDD suspension in 0.5% methocel+0.02% SLS) was dosed orally (p.o.) QD throughout the study. Carboplatin (25 mg/kg) was dosed i.p. QW. Control mice were dosed QD and QW with corresponding vehicle solutions. Tumor volumes were measured (caliper) every 2-3 days.

[2] = system: DOTC24510 BRCA 2 mutant breast tumor cells; assay: Compound 113 and radiotherapy, cell viability by Incucyte; assay type: cell-based; conditions: 200 nM Compound 113 with radiotherapy at 0.5 or 1 Gy on days 2, 6, 9; read day 13 (FIG. 5)
Description: DOTC24510 BRCA 2 mutant breast tumor cells were plated in 96 well plates at a density of 1000 cells per well and cultured in tissue culture medium at 37° C. On day 1, cells were treated with either DMSO or 200 nM of Compound 113. Cells were irradiated with 0, 0.25, 0.5 or 1 Gy of radiation on days 2, 6, and 9. Cell viability was assessed by Incucyte assay on day 13.

HCT116 BRCA2−/− cells = assay: Combination of Compound 113 and PARP inhibitors, cell growth by Incucyte; assay type: cell-based
Description: HCT116-BRCA2−/− (750 cells/well) cells were seeded in a 96-well plate (Costar 3595) and incubated overnight in a tissue culture incubator (5% CO2, 37° C.). The next day, Compound 113 and PARP inhibitors (olaparib or niraparib) were added using a TECAN D300 instrument. Media was replenished with fresh compounds every 3 or 4 days. Cellular growth was monitored using the Incucyte® Live-Cell Analysis System until DMSO-treated wells reached 90% confluency (10-12 days). Cellular confluency was determined using Incucyte® Cell-by-Cell Analysis Software Module and dose-response curves calculated using GraphPad Prism software.

[3] = system: DLD1 BRCA2 null tumor cells; assay: Polθ-DNA-PK inhibitor combination, cell viability by Incucyte; assay type: cell-based; conditions: in combination with AZD-7648 (DNA-PK inhibitor), 8 days (FIG. 4)
Description: DLD1 BRCA2 null tumor cells were plated at 1000 cells/well in 96 well plates. Compounds were added on day 1 and cells were grown in at 37° C. for 8 days. Cell growth was assessed by the Incucyte assay. Cell viability was normalized to untreated cells.

HCT116 BRCA2−/− tumor = assay: Polθ-PARP inhibitor combination therapy, tumor volume in mice; assay type: in vivo, SCID-Beige mice; conditions: Compound 113 30 mg/kg SDD suspension p.o. QD with olaparib 25 mg/kg p.o. QD; N=10, p=0.0008 (FIG. 2)
Description: as §1
HCT116-BRCA2−/− (10^7 cells/mouse) cells were injected subcutaneously in SCID-Beige mice. Mice were randomized at a mean tumor volume of 150 mm^3. Compound 113 (30 mg/kg as an SDD suspension in 0.5% methocel+0.02% SLS) and PARP inhibitor olaparib (25 mg/kg) were dosed orally (p.o.) QD throughout the study. Control mice were dosed QD with vehicle solution. Tumor volumes measured (caliper) every 3-4 days. N=10, Welch's t test, *** p=0.0008.

[4] = molecular target: PolQ ATPase enzyme (1-894) (Homo sapiens (Human), UniProt O75417); assay: Polθ ATPase enzymatic assay (3 nM enzyme concentration), ADP-Glo; assay type: biochemical
Description: Following pre-incubation with inhibitors, DNA (Fork C) at 20 nM and ATP at 100 μM are added to start the reaction. Enzymatic reaction proceeds at rt for 60 min. ATP consumption is measured using the ADP-Glo assay from Promega. Luminescence is read on the Envision and IC50 are determined using the variable slope 4-parameters equation.
DNA (Fork C) is made by annealing 3 different oligos containing the following sequence of nucleotides:
Oligos are annealed by heating at 95° C. for 5 min in the following buffer (10 mM Tris-HCl PH7.5, 50 mM NaCl, 1 mM EDTA) and cooled to rt.
In Table 4, the Compounds were prepared according to Methods described previously using Intermediates described herein, commercially available reagents or intermediates described in the literature. In some cases, the use of protecting groups may be required to prepare Compounds described below.

PolQ ATPase enzyme (1-894), sequence (O75417 1-894): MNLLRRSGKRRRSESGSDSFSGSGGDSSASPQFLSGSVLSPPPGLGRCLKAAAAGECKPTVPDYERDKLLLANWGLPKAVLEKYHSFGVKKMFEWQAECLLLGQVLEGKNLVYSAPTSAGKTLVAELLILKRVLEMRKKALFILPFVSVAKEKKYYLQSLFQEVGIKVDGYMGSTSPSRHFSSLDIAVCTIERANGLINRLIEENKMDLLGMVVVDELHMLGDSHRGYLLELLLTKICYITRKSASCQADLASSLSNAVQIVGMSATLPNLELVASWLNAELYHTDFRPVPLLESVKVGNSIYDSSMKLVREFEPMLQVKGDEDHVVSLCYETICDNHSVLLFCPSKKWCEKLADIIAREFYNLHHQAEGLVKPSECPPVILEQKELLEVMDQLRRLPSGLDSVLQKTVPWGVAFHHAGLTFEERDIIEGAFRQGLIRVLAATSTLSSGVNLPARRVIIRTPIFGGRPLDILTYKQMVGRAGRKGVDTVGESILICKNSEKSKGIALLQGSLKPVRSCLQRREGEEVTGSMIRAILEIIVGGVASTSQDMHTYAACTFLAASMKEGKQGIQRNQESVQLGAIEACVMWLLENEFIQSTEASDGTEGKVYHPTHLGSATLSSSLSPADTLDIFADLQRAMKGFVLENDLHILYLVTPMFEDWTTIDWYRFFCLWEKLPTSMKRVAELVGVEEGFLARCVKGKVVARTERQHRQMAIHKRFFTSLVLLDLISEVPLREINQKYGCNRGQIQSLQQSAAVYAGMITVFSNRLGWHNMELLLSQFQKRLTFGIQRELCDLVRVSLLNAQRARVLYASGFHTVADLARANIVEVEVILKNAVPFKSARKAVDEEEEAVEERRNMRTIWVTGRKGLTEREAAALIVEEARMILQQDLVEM

Row | SMILES | MDAMB436 BRCA1 cell viability, combination versus AZD-7648 alone [1] | DLD1-BRCA2−/− tumor volume, combination versus monotherapy treatments (DLD1-BRCA2−/− tumors) | DOTC24510 BRCA 2 mutant breast tumor cell viability, combination versus Compound 113 alone [2] | percent viability of HCT116 BRCA2−/− cells, combination versus inhibitors alone (HCT116 BRCA2−/− cells; in combination with niraparib, 10-12 days (FIG. 1B)) | percent viability of HCT116 BRCA2−/− cells, combination versus inhibitors alone (HCT116 BRCA2−/− cells; in combination with olaparib, 10-12 days (FIG. 1A)) | DLD1 BRCA2 null tumor cell viability, combination versus AZD-7648 alone [3] | HCT116 BRCA2−/− tumor volume, combination versus inhibitors alone (HCT116 BRCA2−/− tumor) | pIC50 [4]
1 | COc1cnc(C(F)F)cc1-c1cc(-c2ccn(C)n2)ncc1C(=O)Nc1nnc(C#CC2CC2)s1 [Compound 113, N-(5-(cyclopropylethynyl)-1,3,4-thiadiazol-2-yl)-2′-(difluoromethyl)-5′-methoxy-6-(1-methyl-1H-pyrazol-3-yl)-[4,4′-bipyridine]-3-carboxamide] | sensitizes MDAMB436 breast tumor cells to AZD-7648; also recorded: superior at reducing MDAMB436 BRCA1 cell viability | sensitizes DLD1 BRCA2 null tumors to carboplatin; also recorded: superior at reducing tumor volume in mice | sensitizes DOTC24510 breast tumor cells to irradiation; also recorded: superior at reducing DOTC24510 BRCA 2 mutant breast tumor cell viability | superior at reducing cancer cell viability | superior at reducing cancer cell viability | sensitizes DLD1 BRCA2 null tumor cells to AZD-7648; also recorded: superior at reducing DLD1 BRCA2 null tumor cell viability | superior at reducing tumor volume | –
2 | COc1ccc(F)cc1-c1cnccc1C(=O)Nc1nnc([C@@H]2C[C@H]2c2nc3ccccc3n2C)s1 (racemic) [Compound 4, 3-(5-fluoro-2-methoxyphenyl)-N-(5-((1R,2R)-2-(1-methyl-1H-benzo[d]imidazol-2-yl)cyclopropyl)-1,3,4-thiadiazol-2-yl)isonicotinamide] | – | – | – | – | – | – | – | 7.04
